Measured values: patent publication US11396517B1, “Exo-aza spiro inhibitors of menin-MLL interaction” (Janssen Pharmaceutica NV, priority 2017, dated 2022)
Read-outs that look alike come from different tables or passages of the source.

Assays:
menin = molecular target: T1, menin (Homo sapiens, UniProt O00255, T541A); test: Menin/MLL homogenous time-resolved fluorescence (HTRF) assay; type: binding
T1 construct: Menin (a.a. 1-610-6×his tag)
T1 sequence (O00255 with tags, fused parts or gaps T541A): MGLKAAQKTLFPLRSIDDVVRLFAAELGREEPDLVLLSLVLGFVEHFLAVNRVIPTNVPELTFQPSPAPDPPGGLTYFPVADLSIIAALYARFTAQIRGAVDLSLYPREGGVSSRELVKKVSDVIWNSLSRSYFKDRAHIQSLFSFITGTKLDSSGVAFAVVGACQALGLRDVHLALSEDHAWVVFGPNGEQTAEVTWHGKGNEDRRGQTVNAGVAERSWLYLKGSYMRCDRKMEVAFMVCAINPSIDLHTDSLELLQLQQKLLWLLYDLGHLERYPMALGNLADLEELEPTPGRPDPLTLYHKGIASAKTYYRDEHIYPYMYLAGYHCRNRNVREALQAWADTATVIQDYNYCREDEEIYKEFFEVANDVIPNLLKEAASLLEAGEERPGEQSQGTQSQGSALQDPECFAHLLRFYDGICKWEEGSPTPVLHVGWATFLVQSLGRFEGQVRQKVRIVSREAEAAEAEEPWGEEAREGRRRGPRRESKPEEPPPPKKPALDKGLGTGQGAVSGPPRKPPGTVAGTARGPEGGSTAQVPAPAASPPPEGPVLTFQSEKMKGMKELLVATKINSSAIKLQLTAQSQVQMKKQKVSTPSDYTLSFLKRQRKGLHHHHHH
Procedure, shortened: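 Terbium-labeled menin (aa 1-610, His-tagged; […]) preincubated 5 min with compound, then 75 nM FITC-MBM1 peptide for 15 min, ambient, Tris pH 7.5, 0.5% DMSO. HTRF 520/490 ratio; 11-point 3-fold titration; IC50 from % inhibition fit.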

MOLM14 = test: Proliferation assay B (spheroid assay) MOLM14; type: cell-based, human; details: MOLM14 cells, confluence at day 8, absolute IC50, read-out: (3b) Spheroid assay MOLM14 (IC50(μM)) Assay B
Procedure: 3b) Proliferation Assay B
The anti-proliferative effect of menin/MLL protein/protein interaction inhibitor test compounds was assessed in human leukemia cell lines. The cell lines MV-4-11 and MOLM14 harbor MILL translocations and express the MILL fusion proteins MLL-AF4 and MLL-AF9, respectively, as well as the wildtype protein from the second allele. […] K562 was used as a control cell line containing two MLL wildtype alleles in order to exclude compounds that display general cytotoxic effects.
MV-4-11 and MOLM14 were cultured in RPMI-1640 (Sigma Aldrich) supplemented with 10% fetal bovine serum (HyClone), 2 mM L-glutamine (Sigma Aldrich) and 50 μg/ml gentamycin (Gibco). K562 were propagated in RPMI-1640 (Sigma Aldrich) supplemented with 20% fetal bovine serum (HyClone), 2 mM L-glutamine (Sigma Aldrich) and 50 μg/ml gentamycin (Gibco).
In order to assess the anti-proliferative effects, 1,500 MV-4-11, 300 MOLM14 cells or 750 K562 cells were seeded in 200 μl media per well in 96-well round bottom, ultra-low attachment plates (Costar, catalogue number 7007). Cell seeding numbers were chosen based on growth curves to ensure linear growth throughout the experiment. Test compounds were added at different concentrations and the DMSO content was normalized to 0.3%. Cells were incubated for 8 d at 37° C. and 5% CO2. Spheroid like growth was measured in real-time by live-cell imaging (IncuCyteZOOM, Essenbio, 4× objective) acquiring images at day 8. Confluence (%) as a measure of spheroid size was determined using an integrated analysis tool.
In order to determine the effect of the test compounds over time, the confluence in each well as a measure of spheroid size, was calculated. Confluence […] at the beginning of the experiment (t=0) was used as baseline for the calculation.
Absolute IC50 values were calculated as percent change in confluence as follows:
LC=Low Control: cells treated with 1 μM of the cytotoxic agent staurosporin
HC=High Control: Mean confluence (%) (DMSO treated cells) % Effect=100−(100*(Sample−LC)/(HC−LC))
To determine the IC50 a curve is fitted to the plot of % Effect vs Log 10 compound concentration using a sigmoidal fit with a variable slope and fixing the maximum to 100% and the minimum to 0%.

[1] = location 2, read-out: (2) location 2 Menin HTRF assay (IC50 (nM))

Row | IC50 (menin; [1]) [nM] | IC50 (MOLM14) [µM] | IC50 (MOLM14; Homo sapiens, MOLM-14, 192 h) [µM] | IC50 (menin; location 1, read-out: (2) location 1 Menin HTRF assay (IC50 (nM))) [nM] | Compound
1 | 8.7 | 0.95 | – | – | CN1CCC(c2cc(NC3CC4(CCN(c5ncnc6sc(CC(F)(F)F)cc56)C4)C3)ccc2C#N)CC1 (single isomer, unassigned) [Compound 80]
2 | 1.7 | 0.69 | – | – | CNC(=O)c1ccc(NC2CC3(CCN(c4ncnc5sc(CC(F)(F)F)cc45)C3)C2)c(Cl)c1 (single isomer, unassigned) [Compound 69]
3 | 135 | – | > 3.75 | – | O=C(c1ccc(NC2CC3(C2)CN(c2ncnc4sc(CC(F)(F)F)cc24)C3)cc1)N1CCOCC1 [Compound 423]
4 | 3.1 | – | > 3.75 | – | N#CCn1c(=O)[nH]c2cc(NC3CC4(CCN(c5ncnc6sc(CC(F)(F)F)cc56)C4)C3)ccc21 (single isomer, unassigned) [Compound 357]
5 | 116 | > 3.75 | – | – | CC(C#N)(C#N)c1ccc(NC2CC3(CCN(c4ncnc5sc(CC(F)(F)F)cc45)C3)C2)cc1 (single isomer, unassigned) [Compound 234]
6 | 82 | – | > 3.75 | – | COC1CCN(C(=O)c2ccc(NC3CC4(CCN(c5ncnc6sc(CC(F)(F)F)cc56)C4)C3)cc2)CC1 (single isomer, unassigned) [Compound 183]
7 | 58.1 | > 3.75 | – | – | CNC(=O)c1ccc(NC2CC3(CCN(c4ncnc5sc(CC(F)(F)F)cc45)C3)C2)c(C)c1 (centres unmarked) [Compound 212]
8 | 489 | – | > 3.75 | – | CNC(=O)c1ccc(NC2CC3(CCN(c4ncnc5sc(CC(F)(F)F)cc45)C3)C2)cc1C1CCN(C)CC1 (single isomer, unassigned) [Compound 230]
9 | 3.4 | – | 3.38 | – | CC(=O)Nc1ccc(NC2CC3(CCN(c4ncnc5sc(CC(F)(F)F)cc45)C3)C2)cc1 (single isomer, unassigned) [Compound 331]
10 | 13.4 | – | > 3.75 | – | CS(=O)(=O)Cc1ccc(NC2CC3(CCN(c4ncnc5sc(CC(F)(F)F)cc45)C3)C2)cc1 (mixture of isomers) [Compound 344]
11 | 30.9 | – | 1.82 | – | FC(F)(F)Cc1cc2c(N3CC[C@@]4(CC[C@H](Nc5ccc(-c6cc[nH]n6)cc5)C4)C3)ncnc2s1 (stereo in doubt) [Compound 140]
12 | 45.7 | – | 0.6 | – | FC(F)(F)Cc1cc2c(N3CC[C@]4(CC[C@H](Nc5ccc(-c6cc[nH]n6)cc5)C4)C3)ncnc2s1 (stereo in doubt) [Compound 142]
13 | 5.3 | 3.5 | – | – | N#CCn1c(=O)[nH]c2cc(NC3CC4(CCN(c5ncnc6sc(CC(F)(F)F)cc56)C4)C3)ccc21 (single isomer, unassigned) [Compound 358]
14 | 80 | – | > 3.75 | – | CNC(=O)c1ccc(NC2CC3(CCN(c4ncnc5sc(CC(F)(F)F)cc45)C3)C2)cc1CCCN(C)C (mixture of isomers) [Compound 236]
15 | 2.9 | 2.61 | – | – | CS(=O)(=O)NCc1ccc(NC2CC3(CCN(c4ncnc5sc(CC(F)(F)F)cc45)C3)C2)cc1 (single isomer, unassigned) [Compound 368]
16 | 749 | – | > 3.75 | – | CNC(=O)c1cnc(NC2CC3(CCN(c4ncnc5sc(CC(F)(F)F)cc45)C3)C2)cn1 (single isomer, unassigned) [Compound 418]
17 | 1100 | – | > 3.75 | – | CC1CN(C(=O)c2ccc(NC3CC4(CCN(c5ncnc6sc(CC(F)(F)F)cc56)C4)C3)cc2)CC(C)O1 (single isomer, unassigned) [Compound 405]
18 | 30.6 | – | > 3.75 | – | CS(=O)(=O)N1CCC(C(N)=O)(c2ccc(NC3CC4(CCN(c5ncnc6sc(CC(F)(F)F)cc56)C4)C3)cc2)CC1 (centres unmarked) [Compound 376]

Row | IC50 (menin; [1]) [nM] | IC50 (MOLM14) [µM] | IC50 (MOLM14; Homo sapiens, MOLM-14, 192 h) [µM] | IC50 (menin; location 1, read-out: (2) location 1 Menin HTRF assay (IC50 (nM))) [nM] | Compound
19 | 101 | – | > 3.75 | – | O=C(c1ccc(NC2CC3(CCN(c4ncnc5sc(CC(F)(F)F)cc45)C3)C2)cc1)N1CCS(=O)(=O)CC1 (single isomer, unassigned) [Compound 411]
20 | 43.4 | – | > 3.75 | – | CN(C)CCN(C)C(=O)c1ccc(NC2CC3(CCN(c4ncnc5sc(CC(F)(F)F)cc45)C3)C2)cc1 (mixture of isomers) [Compound 180]
21 | 127 | – | > 3.75 | – | CS(=O)(=O)N1CCN(C(=O)c2ccc(NC3CC4(CCN(c5ncnc6sc(CC(F)(F)F)cc56)C4)C3)cc2)CC1 (single isomer, unassigned) [Compound 178]
22 | 33.4 | 1.09 | – | – | N#Cc1ccc(NC2CC3(CCN(c4ncnc5sc(CC(F)(F)F)cc45)C3)C2)nc1 (single isomer, unassigned) [Compound 175]
23 | 91.8 | – | > 3.75 | – | COCCNC(=O)c1ccc(NC2CC3(CCN(c4ncnc5sc(CC(F)(F)F)cc45)C3)C2)cc1 (single isomer, unassigned) [Compound 86]
24 | 362 | – | > 3.75 | 342 | CS(=O)(=O)N[C@H]1CC[C@H](NC2CC3(CCN(c4ncnc5sc(CC(F)(F)F)cc45)C3)C2)CC1 (some centres unmarked) [Compound 102]
25 | 10.8 | 3.04 | – | – | CNC(=O)c1cnc(NC2CC3(CCN(c4ncnc5sc(CC(F)(F)F)cc45)C3)C2)cn1 (single isomer, unassigned) [Compound 419]
26 | 114 | – | 2.64 | – | CN1CCC(COc2cc(NC3CC4(CCN(c5ncnc6sc(CC(F)(F)F)cc56)C4)C3)ccc2C#N)CC1 (mixture of isomers) [Compound 241]
27 | 354 | – | > 3.75 | – | CNC(=O)c1ccc(NC2CC3(CCN(c4ncnc5sc(CC(F)(F)F)cc45)C3)C2)cc1OCCN(C)C (centres unmarked) [Compound 76]
28 | 22.1 | – | > 3.75 | – | O=C1NCCN1Cc1ccc(NC2CC3(CCN(c4ncnc5sc(CC(F)(F)F)cc45)C3)C2)cc1 (centres unmarked) [Compound 107]
29 | 4000 | – | > 3.75 | – | CS(=O)(=O)N1CCN(CCn2c(=O)[nH]c3ccc(NC4CC5(CCN(c6ncnc7sc(CC(F)(F)F)cc67)C5)C4)cc32)CC1 (mixture of isomers) [Compound 221]
30 | 17.8 | – | 3.39 | – | CCS(=O)(=O)N[C@H]1CC[C@H](CNC2CC3(CCN(c4ncnc5sc(CC(F)(F)F)cc45)C3)C2)CC1 (some centres unmarked) [Compound 106]
31 | 16.2 | – | > 3.75 | – | NC(=O)Cn1c(=O)[nH]c2cc(NC3CC4(CCN(c5ncnc6sc(CC(F)(F)F)cc56)C4)C3)ccc21 (single isomer, unassigned) [Compound 359]
32 | 4.9 | – | > 3.75 | – | CS(=O)(=O)Nc1ccc(NC2CC3(CCN(c4ncnc5sc(CC(F)(F)F)cc45)C3)C2)cc1 (mixture of isomers) [Compound 343]
33 | 4.4 | – | > 3.75 | – | CNc1nc(N2CCC3(CC(Nc4ccc5oc(=O)[nH]c5c4)C3)C2)c2cc(CC(F)(F)F)sc2n1 (single isomer, unassigned) [Compound 397]
34 | 208 | > 3.75 | – | – | O=C(c1ccc(NC2CC3(CCN(c4ncnc5sc(CC(F)(F)F)cc45)C3)C2)nn1)N1CCOCC1 (single isomer, unassigned) [Compound 421]
35 | 26.8 | – | > 3.75 | – | CNC(=O)c1ccc(NC2CC3(CCN(c4ncnc5sc(CC(F)(F)F)cc45)C3)C2)c(F)c1 (centres unmarked) [Compound 66]
